Measured values: PMC9817077, “Simple, Reliable Protocol for High-Yield Solubilization of Seedless Amyloid-β Monomer” (ACS Chemical Neuroscience, 2022)

Assays:
[1] = Thioflavin T (ThT) self-assembly (fibrillization) kinetics assay; format: physicochemical
Protocol: Peptide was prepared using either of the aforementioned protocols, with or without HFIP pretreatment, and self-assembly was initiated by rapid dilution into the fibrillization buffer to a final concentration of 1–10 μM peptide. […] The success of this strategy was confirmed empirically.
Self-assembly experiments were carried out in a 20 mM sodium phosphate buffer (pH 8) containing 200 μM EDTA, 1 mM NaN3, and 20 μM ThT. […] Correction can be carried out before or after this addition. However, if correction is carried out after the peptide has been added to the buffer stock, the peptide will already have begun to aggregate so that the delay could influence the results. In addition, adding acid to lower the pH would modify the buffer composition and increase the ionic strength from its intended value. As a better alternative, one can correct the pH in advance, by preparing a buffer stock that is more acidic than the final intended solution but reliably reaches the correct pH following the addition of a known quantity of NaOH and Aβ(1-42). Note that this correction is only necessary when preparing Aβ(1-42) solutions by direct addition of the peptide from NaOH stock and is not necessary when exchanging the peptide into the correct buffer by SEC.
The ratio of NaH2PO4 and Na2HPO4 in the 5× buffer stock was chosen to give the correct pH when mixed with the NaOH and other buffer constituents, and was initially based on calculation and subsequently optimized experimentally. The final intended quantities of H2PO4^– and HPO4^2– can be calculated from the Henderson-Hasselbalch eq.[97] Given an acid dissociation constant K2 ≈ 6.94 at the ionic strength of the self-assembly buffer,[98] one expects the final self-assembly buffer to contain approximately 1.6 mM H2PO4^– and 18.4 mM HPO4^2–. When NaOH is added to phosphate buffer, most of the hydroxide is consumed in the reaction OH^– + H2PO4^– → H2O + HPO4^2–. Therefore, if 10 mM NaOH is incorporated into the final buffer at 10% of the final volume, 1 mM H2PO4^– will be converted to 1 mM HPO4^2–. Thus, to achieve the correct final ratio of phosphate ions, the 5× buffer stock will need to contain 5 × (1.6 + 1.0) mM = 13 mM NaH2PO4 and 5 × (18.4 – 1.0) mM = 87 mM Na2HPO4. Similarly, if 50 mM NaOH is used, the 5× buffer stock will need to contain 5 × (1.6 + 5.0) mM = 33 mM NaH2PO4 and 5 × (18.4 – 5.0) mM = 67 mM Na2HPO4. In practice, these calculations were used to inform preparation of a test buffer stock, which was then used to prepare a test self-assembly buffer using the ratios described above. If the pH of this test solution was outside the 7.98–8.02 range, a new test buffer stock was prepared with a modified composition. […]

[2] = Re-freezing of thawed aliquots (AF4-MALS and ThT); format: physicochemical; conditions: 50 mM NaOH, 5 min sonication; re-frozen in liquid N2, on pre-cooled metal or in a rack at −80 °C
Protocol: 174 S6 Re-freezing of Aβ solubilized in 50 mM NaOH
177 used on multiple separate occasions. Aliquots that had been prepared by sonication for 5 min 178 in 50 mM NaOH were thawed and then re-frozen according to one of three methods: rapid 179 freezing by immersion in liquid N2 (freezing time < 1 s); freezing by placing the Eppendorf 180 tube in contact with pre-cooled metal at -80 °C (< 1 min); and simply placing the sample 181 in a rack in the -80 °C freezer (< 5 min). While the former was obviously preferable, the 182 other two methods were tested due to their convenience, and to ascertain whether improper […]
185 indistinguishable the results obtained with ﬁrst-use aliquots (Figures 3-4 in the main text), […]
Therefore, Aβ(1-42) aliquots
187 […] 188 convenient when performing a range of experiments requiring diﬀerent quantities of peptide.
190 temperature is -80 °C, use of liquid N2 is still recommended whenever possible.
The corresponding LS 90o signal. (c) The normalized ThT self-assembly kinetics. All panels use the same color scheme, which encodes the re-freezing method: red, placement in a rack in the -80 °C freezer; green, freezing by placement in contact with pre-cooled metal at -80 °C; blue, rapid freezing by immersion in liquid N2.
(1 picture or pasted object on this page, not shown here)

For “Aβ(1-42): Ultrapure recombinant Aβ(1-42) purchased from rPeptide, lyophilized from HFIP; disordered amyloid-forming peptide”, the “initial ThT fluorescence” value ([1]; 50 mM NaOH samples, 4 μM peptide, 20 mM sodium phosphate pH 8, 37 °C, mean) was 2.2 % of final fluorescence, the “fibrillization half-time τhalf” value ([1]; commercial recombinant samples solubilized in 50 mM NaOH, 20 mM sodium phosphate pH 8, 37 °C, concentration not given) was 7700 ± 380 s and the “scaling exponent γ” value ([1]; commercial recombinant, 5 min sonication in 50 mM NaOH (sample 50-5-N-13), fit of mean half-times 1.5–4.0 μM, 20 mM sodium phosphate pH 8, 37 °C) was −1.32. For the same substance, the “scaling exponent γ (slope of half-time vs Aβ(1-42) concentration, double-logarithmic)” value ([1]; re-solubilized in 10 mM NaOH with or without HFIP pretreatment, 1–5 μM peptide, 20 mM sodium phosphate pH 8.0, 200 μM EDTA, 1 mM NaN3, 20 μM ThT, 37 °C, average, SD 0.24 across 9 peptide samples) was −1.04 and the “AF4-MALS elugrams and ThT kinetics of re-frozen peptide against first-use aliquots” value [2] was “indistinguishable”.
